Source: US20040087642A1, “Methods of using and compositions comprising a JNK inhibitor for the treatment, prevention, management and/or modification of pain” (priority 2002, published 2004)

How the values were obtained:
[1] = system: rat ventral mesencephalan dopaminergic neurons; experiment: [3H]Dopamine Cell Culture Assay (6-OHDA neurotoxicity); type: cell-based; conditions: 6-OHDA 30 μM, uptake 22 hrs after exposure
Method: Cultures of dopaminergic neurons were prepared according to a modification of the procedure described by Raymon and Leslie (J. Neurochem. 62:1015-1024, 1994). Time-mated pregnant rats were sacrificed on embyronic day 14-15 (crown rump length 11-12 mm) and the embryos removed by cesarean section. The ventral mesencephalon, containing the dopaminergic neurons, was dissected from each embryo. Tissue pieces from approximately 48 embryos were pooled and dissociated both enzymatically and mechanically. An aliquot from the resulting cell suspension was counted and the cells were plated in high glucose DMEM/F12 culture medium with 10% fetal bovine serum at a density of 1×10^5 cells/well of a Biocoat poly-D-lysine-coated 96-well plate. The day following plating was considered 1 day in vitro (DUV). Cells were maintained in a stable environment at 37° C., 95% humidity, and 5% CO2. A partial medium change was performed at 3 DIV. […]
[^3H]Dopamine uptake is used as a measure of the health and integrity of dopaminergic neurons in culture (Prochiantz et al., PNAS 76: 5387-5391, 1979). […] Briefly, cells treated with 6-OHDA in the presence and absence of 5-amino-anthra(9,1-cd)isothiazol-6-one were assessed in the uptake assay 22 hrs after exposure to 6-OHDA. […] Radioactivity was removed and the cultures were washed 3× with ice cold PBS. […]

[2] = Brain-Blood Plasma Distribution In Vivo; parameters: species or system Sprague-Dawley rats; conditions: rat
Method: 5-Amino-anthra(9,1-cd)isothiazol-6-one was administered intravenously (10 mg/kg) into the veins of Sprague-Dawley rats. After 2 hr, blood samples were obtained from the animals and their vascular systems were perfused with approximately 100 mL of saline to rid their brains of blood. The brains were removed from the animals, weighed, and homogenized in a 50 mL conical tube containing 10 equivalents (w/v) of methanol/saline (1:1) using a Tissue Tearer (Fischer Scientific). The homogenized material was extracted by adding 600 μL of cold methanol to 250 μL of brain homogenate vortexed for 30 sec and subjected to centrifugation for 5 min. After centrifugation, 600 μL of the resulting supernatant was transferred to a clean tube and evaporated at room temperature under reduced pressure to provide a pellet. […] The brain homogenate analysis samples, plasma analysis samples, and standard analysis samples were analyzed and compared using HPLC by injecting 100 μL of a sample onto a 5 μm C-18 Luna column (4.6 mm×150 mm, commercially available from Phenomenex of Torrance, Calif.) and eluting at 1 mL/min with a linear gradient of 30% aqueous acetonitrile containing 0.1% trifluoroacetic acid to 90% aqueous acetonitrile containing 0.1% trifluoroacetic acid over 8 minutes and holding at 90% aqueous acetonitrile containing 0.1% trifluoroacetic acid for 3 min. with absorbance detection at 450 nm. […]

[3] = Solubility in aqueous media; type: physicochemical

brain-drug concentration ([2]; 10 mg/kg intravenously, 2 hr post-dose): approximately 65 nmole/g | solubility in aqueous media [3]: limited solubility
SMILES: Nc1ccc2snc3c2c1C(=O)c1ccccc1-3 [5-amino-anthra(9,1-cd)isothiazol-6-one]
protection of dopaminergic neurons ([3H]dopamine uptake) [1]: protects rat ventral mesencephalan neurons from the toxic effects of 6-OHDA | blood-brain barrier crossing ([2]; following intravenous administration): crosses the blood-brain barrier to a significant extent
